The source of these data is patent US6403554B2, “Polyunsaturated fatty acid derivatives and their use” (Ardenia Investments Ltd., priority 1998, dated 2002).

Values joined by “and” are separate entries in the source; they are usually repeats but may differ in a detail not shown here. Equal entries are not always repeated. “Also recorded” adds a separate entry of the source.

Common to all, as to type: in vivo, C57B1/6 mice
Test [1] has as its system antibody-forming cells (AFC) in the spleen. In words: Influence of AFP/compound complexes and their components on humoral immune response (AFC in spleen). The note with it: for Dose at which immunostimulating effect in vivo is displayed: compound in a complex with AFP. How it is done:
0.15 ml of AFP/Compound 3 complex was administered intravenously to 6 mice males of C57B1/6 line (weight 18-22 g) in the dose of […] of AFP and 45.5 μg of compound 3 per capita. Simultaneously suspension of 5·10^7 sheep erythrocytes was injected intraperitoneally (0.2 ml per capita). In the group with compound 3 mice were injected intravenously by one in the dose of 45.5 μg. Animals of group with AFP received 9 μg of AFP. Mice of control group were injected intravenously with equal volume of saline. Complex AFP/Compound 3 effect on humoral immune response was analyzed by counting the quantity of AFC in the spleen according to Cunningham (per 10^6 spleen cells and per spleen).
0.15 ml of AFP/Compound 2a complex (1:100) was administered intravenously to 6 mice males of C57B1/6 line (weight 18-22 g) in the dose of 9 μg of AFP and 45.5 μg of compound 2a per capita. Simultaneously, a suspension of 5·10^7 sheep erythrocytes was injected intraperitoneally (0.2 ml per capita). In the group with compound 2a mice were injected intravenously by one in the dose of 45.5 μg. Animals of group with AFP received 9 μg of AFP. Mice in the control group were injected intravenously with an equal volume of saline. The effect of the AFP/Compound 2a complex on humoral immune response was analyzed by counting the quantity of AFC in the spleen according to Cunningham (per 10^6 spleen cells and per spleen).
(§1) 0.15 ml of AFP/Compound 10 complex (1:200) was administered intravenously to 6 male mice of C57B1/6 line (weight 18-22 g) in the dose of 9 μg of AFP and 91 μg of compound 10 per capita. Simultaneously, a suspension of 5·10^7 sheep erythrocytes was injected intraperitoneally (0.2 ml per capita). In the group receiving compound 10 mice were injected intravenously by one in the dose of 91 μg. Animals in the group with AFP received 9 μg of AFP. Micein the control group were injected intravenously with an equal volume of saline. The effect of the AFP/Compound 10 complex on humoral immune response was analyzed by counting the quantity of AFC in the spleen according to Cunningham (per 10^6 spleen cells and per spleen).
as §1, with “AFP/Compound 14” for “AFP/Compound 10”, “compound 14” for “compound 10”, “group with” for “group receiving”, “Animals of” for “Animals in the”, “AFP. Mice in” for “AFP. Micein”
0.15 ml of AFP/Compound 7 complex (1:200) was administered intravenously to 6 male mice of C57B1/6 line (weight 18-22 g) in the dose of 9 μg of AFP and 91 μg of compound 7 per capita. Simultaneously, a suspension of 5·10^7 sheep erythrocytes was injected intraperitoneally (0.2 ml per capita). In the group with compound 7 mice were injected intravenously by one in the dose of 91 μg. Animals of group with AFP received 9 μg of AFP. Mice of control group were injected intravenously with equal volume of saline. AFP/Compound 7 complex effect on humoral immune response was analyzed by counting the quantity of AFC in the spleen according to Cunningham (per 10^6 spleen cells and per spleen).
0.15 ml of AFP/Compound 15 complex (1:200) was administered intravenously to 6 mice males of C57B1/6 line (weight 18-22 g) in the dose of 9 μg of AFP and 91 μg of compound 15 per capita. Simultaneously, a suspension of 5·10^7 sheep erythrocytes was injected intraperitoneally (0.2 ml per capita). In the group receiving compound 15, the mice were injected intravenously by one in the dose of 91 μg. Animals in the AFP-group received 9 μg of AFP. […]

For test [2] the test system is unchanged. The test is described as follows: Humoral immune response: counting antibody-forming cells (AFC) in the spleen according to Cunningham, mice immunised with sheep erythrocytes. The note with it: compound alone. How it is done: (§2) 0.15 ml of compound 10 was administered intravenously to 6 mice females of CS7B1/6 line (weight 18-22 g) in doses of 45.5, 91 and 136.5 μg of compound 10 per capita for each testing group according to the dose. Simultaneously, a suspension of 5·10^7 sheep erythrocytes was injected intraperitoneally (0.2 ml per capita). Mice in the control group were injected intravenously with equal volume of saline. The effects of compound 10 on humoral immune response were analyzed both by counting the quantity of AFC in the spleen according to Cunningham (per 10^6 spleen cells and per spleen) and estimating the titers of hemagglutining antibodies in serum of the animals (Cunningham A. J., Nature, 1965, Vol.207, No 5001. P.1106-1107), while the titers of hemagglutinating antibodies were evaluated according to litterature (Evans J. et al., Cell, 1974; Vol 3., p.153-158, Feizi T., Menger E., Transfusion, 1970, Vol. 10, p.33-35,).
(§3) 0.15 ml of compound 11 was administered intravenously to 6 female mice of the C57B1/6 line (weight 18-22 g) in doses of 45.5, 91 and 136.5 μg of compound 11 per capita for each testing group according to the dose. Simultaneously, a suspension of 5·10^7 sheep erytrocytes was injected intraperitoneally (0.2 ml per capita). Mice in the control group were injected intravenously with an equal volume of saline. The effects of compound 11 on humoral immune response was analysed both by counting the quantity of AFC in the spleen according to Cunningham (per 10^6 spleen cells and per spleen) and estimating the titers of hemagglutining antibodies in serum of the animals.
as §3, with “12” for “11”, “erythrocytes” for “erytrocytes”, “analyzed” for “analysed”
as §3, with “compound 8” for “compound 11”, “sheep erythrocytes” for “sheep erytrocytes”, “Mice of” for “Mice in”, “response were analyzed” for “response was analysed”
as §3, with “compound 3” for “compound 11”, “Mice of” for “Mice in”, “with” for “with an”, “response were” for “response was”
(§4) 0.15 ml of compound 4 was administered intravenously to 6 female mice of the C57B1/6 line (weight 18-22 g) in a doses of 45.5, 91 and 136.5 μg of compound 4 per capita for each testing group according to the dose. Simultaneously, a suspension of 5·10^7 sheep erythrocytes was injected intraperitoneally (0.2 ml per capita). […]

In test [3] the test system is hemagglutinating antibodies in serum. In words: Humoral immune response: titers of hemagglutinating antibodies in serum. The note with it: serum, female mice. How it is done:
as §2, §3
as §3, with “12” for “11”, “erythrocytes” for “erytrocytes”, “analyzed” for “analysed”
as §3, with “compound 8” for “compound 11”, “sheep erythrocytes” for “sheep erytrocytes”, “Mice of” for “Mice in”, “response were analyzed” for “response was analysed”
as §3, with “compound 3” for “compound 11”, “Mice of” for “Mice in”, “with” for “with an”, “response were” for “response was”
as §4

Setting [4] is: AFP alone 9 μg/mouse i.v., 5-th day, male mice.

Regarding `CC1=C(/C=C/C(C)=C/C=C/C(C)=C/C(=O)N[C@H](C(=O)O)[C@@H](C)OP(=O)(O)O)C(C)(C)CCC1` (relative stereo) [Compound 3, N-(all-trans-retinoyl)-o-phospho-L-threonine], the “Dose at which immunostimulating effect in vivo is displayed” value in test [1] was determined as 45.5 μg/mouse. In addition, the “Dose at which immunostimulating effect in vivo is displayed (micelle form)” value in test [2] came out at 91 μg/mouse. Besides, the Amount of hemagglutinins in test [3] (45.5 μg/mouse i.v.) turned out to be 6.6 ± 0.2 Log2 T; in test [3] (91 μg/mouse i.v.), 8.0 ± 0.3 Log2 T; in test [3] (136.5 μg/mouse i.v.) it was 8.7 ± 0.3 Log2 T.

`CC/C=C\C/C=C\C/C=C\C/C=C\C/C=C\C/C=C\CCC(=O)N[C@@H](COP(=O)(O)O)C(=O)O` [Compound 10, N-docosahexaenoyl-o-phospho-L-serine]: the Immunogenic activity entry in test [1] (compound alone, 91 μg/mouse) is reported as “no immunogenic activity; also recorded: do not inhibit immunogenic activity”. In addition, the “Dose at which immunostimulating effect in vivo is displayed” value in test [1] was determined as 91 μg/mouse. Further, the figures for the Amount of hemagglutinins in test [3] (45.5 μg/mouse i.v.), in test [3] (91 μg/mouse i.v.) and in test [3] (136.5 μg/mouse i.v.) were 7.8 ± 0.3 Log2 T, 7.8 ± 0.3 Log2 T and 8.5 ± 0.4 Log2 T, respectively.

As to `CC/C=C\C/C=C\C/C=C\C/C=C\C/C=C\CCCC(=O)N[C@@H](COP(=O)(O)O)C(=O)O` [Compound 14, N-eicosapentaenoyl-o-phospho-L-serine], the Immunogenic activity entry in test [1] (compound alone, 91 μg/mouse) is recorded as “no immunogenic activity; also recorded: do not inhibit immunogenic activity”. Moreover, in test [1], the “Dose at which immunostimulating effect in vivo is displayed” value is given as 91 μg/mouse. The Amount of hemagglutinins worked out at 6.5 ± 0.3 Log2 T in test [3] (45.5 μg/mouse i.v.), 7.0 ± 0.3 Log2 T in test [3] (91 μg/mouse i.v.) and 7.2 ± 0.2 Log2 T in test [3] (136.5 μg/mouse i.v.).

B1: rat AFP: Alpha-fetoprotein isolated from neonatal rat serum; AFP of Examples 42-44 (protein, UniProt P02773 25-611, looked up)
Alpha-fetoprotein: RVLHTNEFGIESTLDSSQCPTEKNMFNVATIVVAQFVQDATKAEVNKMSSDALAAMKENTGDGCLENQLSVFLDEICHETELSNKYGFSGCCNQSGVERHQCLLARKKTAPDSVPPFHFPETAESCPAYEENRAMSINTFIYDVSKRNPFLYAPTILYLAAQYDKAVPACCKADNMEECFQTKRASMAKELREGSMLNEHVCAVIRKFGSRNLQAVLIIKLSQKFPKANITEIRKLALDVAHIHEQCCHGNAMECLQDGESVMTHMCSQQEILSSKTAECCKLPTIELGYCIIHAENGDKPEGLTLNPSEFLGDRNFAQFSSEEKLLFMASFLHEYSRNHPNLPVSVILKTAKSYQEILEKCSQSETPSKCQDNMEEELQKHIQESQALAKQSCNLYQKLGPYYLQNLFLIGYTRKAPQLTSAELIDLTGKMVSIASTCCQLSEEKRSACGEGLADIYIGHLCLRHEANPVNSGINHCCSSSYSNRRLCITSFLRDETYVPPPFSEDKFIFHKDLCQAQGRALQTMKQELLINLVKQKPEMTEEQHAAVTADFSGLLEKCCKDQDQEACFAKEGPKLISKTREALGV
For the molecule B1, in test [1] (setting [4]), the “Relative amount of AFC (per 10^6 spleen cells)” value was 521.4±49.1 and 507.2±27.5 and 346.1±26.8; the “Total AFC amount (per spleen)” value is 59.7±5.1 ·10^3 and 64.6±6.8 ·10^3 and 34.1±3.3 ·10^3. Besides, the Immunogenic activity entry in test [1] (AFP alone, 9 μg/mouse) was “no immunogenic activity; also recorded: do not inhibit immunogenic activity”.

B2: human AFP: Alpha-fetoprotein isolated from human cord blood by immunoaffinity chromatography; AFP of Examples 38-41 (protein, UniProt P02771 19-609, looked up)
Alpha-fetoprotein: RTLHRNEYGIASILDSYQCTAEISLADLATIFFAQFVQEATYKEVSKMVKDALTAIEKPTGDEQSSGCLENQLPAFLEELCHEKEILEKYGHSDCCSQSEEGRHNCFLAHKKPTPASIPLFQVPEPVTSCEAYEEDRETFMNKFIYEIARRHPFLYAPTILLWAARYDKIIPSCCKAENAVECFQTKAATVTKELRESSLLNQHACAVMKNFGTRTFQAITVTKLSQKFTKVNFTEIQKLVLDVAHVHEHCCRGDVLDCLQDGEKIMSYICSQQDTLSNKITECCKLTTLERGQCIIHAENDEKPEGLSPNLNRFLGDRDFNQFSSGEKNIFLASFVHEYSRRHPQLAVSVILRVAKGYQELLEKCFQTENPLECQDKGEEELQKYIQESQALAKRSCGLFQKLGEYYLQNAFLVAYTKKAPQLTSSELMAITRKMAATAATCCQLSEDKLLACGEGAADIIIGHLCIRHEMTPVNPGVGQCCTSSYANRRPCFSSLVVDETYVPPAFSDDKFIFHKDLCQAQGVALQTMKQEFLINLVKQKPQITEEQLEAVIADFSGLLEKCCQGQEQEVCFAEEGQKLISKTRAALGV
As for B2, the Immunogenic activity entry in test [1] (AFP alone, 9 μg/mouse) was “no immunogenic activity; also recorded: do not inhibit immunogenic activity”.
